Laboratory results reported in paper PMC10318822, “Phase 1 dose-escalation study to evaluate the safety, tolerability, pharmacokinetics, and anti-tumor activity of FCN-159 in adults with neurofibromatosis type 1-related unresectable plexiform neurofibromas” (BMC Medicine, 2023).
Values joined by “and” are separate entries in the source; they are usually repeats but may differ in a detail not shown here. Equal values may be shown once.

Test system: adult patients with NF1-related PN
Experiment: Phase I dose-escalation: DLT, MTD, RP2D and drug-related TEAEs (CTCAE v5.0)
Description: This is a multicenter, open-label, single-arm, non-randomized, phase I dose-escalation trial to evaluate the safety, tolerability, pharmacokinetic (PK), and anti-tumor activity of orally administered FCN-159 in adult patients with NF1 (NCT04954001). Phase I commenced with dose escalation in adult patients following a standard 3 + 3 design (Supplementary Table S1) to determine the maximum tolerated dose (MTD) of FCN-159 administered daily under fasting conditions (defined as no food or drink 1 h before and 2 h after each dose) in 28-day cycles. Study drug was dispensed at the study site and patient adherence was monitored by the records of drug dispensation and return. Patients were on treatment until PD, death, patient's voluntary withdrawal from study treatment, or study termination. The study was followed for 2 years after the last patient in. The starting dose was 4 mg, escalating in cohorts of at least three evaluable patients at 6 mg, 8 mg, and 12 mg until the MTD was determined. The starting dose in this study was determined based on available data from a phase 1a, first-in-human study of FCN-159 in patients with advanced NRAS ^mut+ melanoma at the time of study design. […] Dose expansion at a likely RP2D level enrolled approximately six patients. The highest dose level with a dose-limiting toxicity (DLT) incidence rate ≤ 33% (0/3 or 1/6 patients) was to be considered the MTD. If patients experienced grade ≥ 3 and/or unacceptable toxic events that were considered as at least possibly related to the study treatment, the study treatment was discontinued and supportive treatment was given in accordance with local treatment routines. If the toxicity returned to grade ≤ 2 within 28 days after the occurrence, and there was no progression on patients’ conditions or the investigator believed that patients could benefit from the study treatment, the original dose could be maintained or reduced after discussion with medical monitor. After completion of the dose escalation part of the study, PK, efficacy, safety, and tolerability data were analyzed to select the RP2D.
Primary endpoints of the study were the DLT incidence rate, MTD, and RP2D. Secondary endpoints included other safety assessments, imaging tumor response (complete response [CR], PR, stable disease [SD], or progressive disease [PD]), and PK parameters of FCN-159. Adverse events were graded per CTCAE v5.0.
All patients underwent a complete medical history, physical examination, Eastern Cooperative Oncology Group (ECOG) assessment, and laboratory analysis of test results. Drug-related TEAEs, serious adverse events (SAEs), TEAEs of grade ≥ 3 toxicity, and TEAEs leading to drug discontinuation were reviewed on an ongoing basis. Efficacy was assessed by radiologic scans and clinical assessment. Tumor assessments per Response Evaluation in Neurofibromatosis Schwannomatosis criteria were performed by investigators using MRI volumetric analysis every 4 cycles within the first 2 years (± 7 days) and every 6 cycles after 2 years (± 14 days) until PD, death, patient's voluntary withdrawal from study treatment, or study termination. MRI sequences of […], T1- and T2-weighted sequences were chosen and the software of Extended Brilliance Workspace, SIGNA Premier and uExceed were used for MRI volumetric analysis. The same software was used for all tumor assessments at baseline and subsequent assessed timepoints of the same patient. Pain was assessed by an 11-point numerical rating scale (NRS-11).
The sample size for the dose-escalation study was estimated to be 24 based on the 3 + 3 method. Safety was analyzed in patients who received at least one dose of FCN-159 and had at least one safety assessment. DLT was assessed in the DLT analysis set, defined as patients who were enrolled in the dose-escalation study and met the DLT evaluation criteria.

Question: Which results are given for `Cn1c(=O)c(F)c(Nc2ccc(I)cc2F)c2c(=O)n(C3CC3)nc(-c3cccc(NS(=O)(=O)C4CC4)c3)c21` [FCN-159]?
Answer: Drug-related TEAE: Mouth ulceration (8 mg (N = 8)): 1 (12.5) n (%); Drug-related TEAE: Muscular weakness (8 mg (N = 8)): 1 (12.5) n (%); Drug-related TEAE: Oedema peripheral (8 mg (N = 8)): 0 n (%); Drug-related TEAE: Pain in extremity (8 mg (N = 8)): 0 n (%); Drug-related TEAE: Paronychia (8 mg (N = 8)): 3 (37.5) n (%); Drug-related TEAE: Prealbumin decreased (8 mg (N = 8)): 1 (12.5) n (%); Drug-related TEAE: Protein urine present (8 mg (N = 8)): 2 (25.0) n (%); Drug-related TEAE: Pruritus (8 mg (N = 8)): 1 (12.5) n (%); Drug-related TEAE: QRS axis abnormal (8 mg (N = 8)): 0 n (%); Drug-related TEAE: Rash (8 mg (N = 8)): 1 (12.5) n (%); Drug-related TEAE: Sinus arrhythmia (8 mg (N = 8)): 0 n (%); Drug-related TEAE: Sinus bradycardia (8 mg (N = 8)): 0 n (%); Drug-related TEAE: Sinusitis (8 mg (N = 8)): 0 n (%); Drug-related TEAE: Skin exfoliation (8 mg (N = 8)): 1 (12.5) n (%); Drug-related TEAE: Specific gravity urine increased (8 mg (N = 8)): 2 (25.0) n (%); Drug-related TEAE: Stomatitis (8 mg (N = 8)): 3 (37.5) n (%); Drug-related TEAE: Supraventricular extrasystoles (8 mg (N = 8)): 0 n (%); Drug-related TEAE: Total bile acids increased (8 mg (N = 8)): 0 n (%); Drug-related TEAE: Tricuspid valve incompetence (8 mg (N = 8)): 2 (25.0) n (%); Drug-related TEAE: Urinary occult blood positive (8 mg (N = 8)): 2 (25.0) n (%); Drug-related TEAE: Urinary sediment present (8 mg (N = 8)): 1 (12.5) n (%); Drug-related TEAE: Urinary tract infection (8 mg (N = 8)): 0 n (%); Drug-related TEAE: Urine ketone body present (8 mg (N = 8)): 2 (25.0) n (%); Drug-related TEAE: Urobilinogen urine increased (8 mg (N = 8)): 1 (12.5) n (%); Drug-related TEAE: Urticaria (8 mg (N = 8)): 0 n (%); Drug-related TEAE: Vision blurred (8 mg (N = 8)): 1 (12.5) n (%); Drug-related TEAE: Visual acuity reduced (8 mg (N = 8)): 0 n (%); Drug-related TEAE: pH urine decreased (8 mg (N = 8)): 2 (25.0) n (%); Drug-related TEAE: pH urine increased (8 mg (N = 8)): 1 (12.5) n (%); Subjects with any drug-related TEAE (8 mg (N = 8)): 8 (100) n (%); Patients with DLT (grade 3 folliculitis) (8 mg, 1 of 8 patients): 16.7% and 12.5%; Subjects with grade 3 AEs (12 mg): four; Drug-related TEAE: Abdominal pain (12 mg (N = 4)): 0 n (%); Drug-related TEAE: Acne (12 mg (N = 4)): 0 n (%); Drug-related TEAE: Acne pustular (12 mg (N = 4)): 0 n (%); Drug-related TEAE: Alanine aminotransferase increased (12 mg (N = 4)): 0 n (%); Drug-related TEAE: Albumin globulin ratio decreased (12 mg (N = 4)): 0 n (%); Drug-related TEAE: Alopecia (12 mg (N = 4)): 3 (75.0) n (%); Drug-related TEAE: Amylase increased (12 mg (N = 4)): 1 (25.0) n (%); Drug-related TEAE: Anemia (12 mg (N = 4)): 0 n (%); Drug-related TEAE: Aortic dilatation (12 mg (N = 4)): 0 n (%); Drug-related TEAE: Aspartate aminotransferase increased (12 mg (N = 4)): 0 n (%); Drug-related TEAE: Asthenia (12 mg (N = 4)): 0 n (%); Drug-related TEAE: Beta globulin decreased (12 mg (N = 4)): 0 n (%); Drug-related TEAE: Beta globulin increased (12 mg (N = 4)): 0 n (%); Drug-related TEAE: Blood alkaline phosphatase increased (12 mg (N = 4)): 2 (50.0) n (%); Drug-related TEAE: Blood bilirubin increased (12 mg (N = 4)): 0 n (%); Drug-related TEAE: Blood creatine phosphokinase increased (12 mg (N = 4)): 0 n (%); Drug-related TEAE: Blood fibrinogen increased (12 mg (N = 4)): 4 (100) n (%); Drug-related TEAE: Blood lactate dehydrogenase increased (12 mg (N = 4)): 1 (25.0) n (%); Drug-related TEAE: Blood pressure increased (12 mg (N = 4)): 1 (25.0) n (%); Drug-related TEAE: Blood urea increased (12 mg (N = 4)): 0 n (%); Drug-related TEAE: Blood uric acid increased (12 mg (N = 4)): 0 n (%); Drug-related TEAE: Breath odor (12 mg (N = 4)): 0 n (%); Drug-related TEAE: Capillary disorder (12 mg (N = 4)): 0 n (%); Drug-related TEAE: Constipation (12 mg (N = 4)): 2 (50.0) n (%); Drug-related TEAE: Decreased appetite (12 mg (N = 4)): 0 n (%); Drug-related TEAE: Dermatitis acneiform (12 mg (N = 4)): 0 n (%); Drug-related TEAE: Diarrhea (12 mg (N = 4)): 0 n (%); Drug-related TEAE: Drug eruption (12 mg (N = 4)): 0 n (%); Drug-related TEAE: Dyslipidemia (12 mg (N = 4)): 0 n (%); Drug-related TEAE: Ejection fraction decreased (12 mg (N = 4)): 0 n (%); Drug-related TEAE: Electrocardiogram QT prolonged (12 mg (N = 4)): 0 n (%); Drug-related TEAE: Electrocardiogram abnormal (12 mg (N = 4)): 2 (50.0) n (%); Drug-related TEAE: Epistaxis (12 mg (N = 4)): 0 n (%); Drug-related TEAE: Folliculitis (12 mg (N = 4)): 4 (100) n (%); Drug-related TEAE: Functional gastrointestinal disorder (12 mg (N = 4)): 0 n (%); Drug-related TEAE: Gamma-glutamyltransferase increased (12 mg (N = 4)): 0 n (%); Drug-related TEAE: Gingival pain (12 mg (N = 4)): 0 n (%); Drug-related TEAE: Hyperlipidemia (12 mg (N = 4)): 1 (25.0) n (%); Drug-related TEAE: Hypertension (12 mg (N = 4)): 0 n (%); Drug-related TEAE: Hypoalbuminemia (12 mg (N = 4)): 0 n (%); Drug-related TEAE: Hypocalcemia (12 mg (N = 4)): 0 n (%); Drug-related TEAE: Hypophosphatemia (12 mg (N = 4)): 0 n (%); Drug-related TEAE: Hypoproteinemia (12 mg (N = 4)): 0 n (%); Drug-related TEAE: Immunoglobulins increased (12 mg (N = 4)): 0 n (%); Drug-related TEAE: Impetigo (12 mg (N = 4)): 0 n (%); Drug-related TEAE: Left atrial enlargement (12 mg (N = 4)): 0 n (%); Drug-related TEAE: Lipoprotein abnormal (12 mg (N = 4)): 0 n (%); Drug-related TEAE: Malaise (12 mg (N = 4)): 0 n (%); Drug-related TEAE: Menstrual disorder (12 mg (N = 4)): 2 (50.0) n (%); Drug-related TEAE: Mitral valve incompetence (12 mg (N = 4)): 1 (25.0) n (%); Drug-related TEAE: Mouth ulceration (12 mg (N = 4)): 3 (75.0) n (%); Drug-related TEAE: Muscular weakness (12 mg (N = 4)): 0 n (%); Drug-related TEAE: Oedema peripheral (12 mg (N = 4)): 0 n (%); Drug-related TEAE: Pain in extremity (12 mg (N = 4)): 0 n (%); Drug-related TEAE: Paronychia (12 mg (N = 4)): 0 n (%); Drug-related TEAE: Prealbumin decreased (12 mg (N = 4)): 0 n (%); Drug-related TEAE: Protein urine present (12 mg (N = 4)): 0 n (%); Drug-related TEAE: Pruritus (12 mg (N = 4)): 0 n (%); Drug-related TEAE: QRS axis abnormal (12 mg (N = 4)): 3 (75.0) n (%); Drug-related TEAE: Rash (12 mg (N = 4)): 0 n (%); Drug-related TEAE: Sinus arrhythmia (12 mg (N = 4)): 0 n (%); Drug-related TEAE: Sinus bradycardia (12 mg (N = 4)): 0 n (%); Drug-related TEAE: Sinusitis (12 mg (N = 4)): 1 (25.0) n (%); Drug-related TEAE: Skin exfoliation (12 mg (N = 4)): 0 n (%); Drug-related TEAE: Specific gravity urine increased (12 mg (N = 4)): 0 n (%); Drug-related TEAE: Stomatitis (12 mg (N = 4)): 0 n (%); Drug-related TEAE: Supraventricular extrasystoles (12 mg (N = 4)): 0 n (%); Drug-related TEAE: Total bile acids increased (12 mg (N = 4)): 0 n (%); Drug-related TEAE: Tricuspid valve incompetence (12 mg (N = 4)): 0 n (%); Drug-related TEAE: Urinary occult blood positive (12 mg (N = 4)): 0 n (%); Drug-related TEAE: Urinary sediment present (12 mg (N = 4)): 0 n (%); Drug-related TEAE: Urinary tract infection (12 mg (N = 4)): 0 n (%); Drug-related TEAE: Urine ketone body present (12 mg (N = 4)): 0 n (%); Drug-related TEAE: Urobilinogen urine increased (12 mg (N = 4)): 0 n (%)
